# Values of other authors in patent US7887847B2, “Nutritional supplement for treatment of ocular diseases” (priority 2004, dated 2011).
# System: macular degeneration
# Conditions: adults with the highest dietary intake compared with people with the lowest intake
smiles,measurement,value
"CC1=C[C@H](O)CC(C)(C)[C@H]1/C=C/C(C)=C/C=C/C(C)=C/C=C/C=C(C)/C=C/C=C(C)/C=C/C1=C(C)C[C@@H](O)CC1(C)C [lutein, Lutein]",decreased risk of macular degeneration,57%
